Source: publication PMC11494886, “Discovery and design of molecular glue enhancers of CDK12–DDB1 interactions for targeted degradation of cyclin K” (RSC Chemical Biology, 2024)

What was measured:
HEK-293T cells = experiment: CellTiter-Glo viability assay, WT HEK-293T; assay type: cell-based; conditions: Homo sapiens, 72 hours, read-out: EC50 cell viability
Text: (§1) MDA-MB-231 (human triple-negative breast cancer cells) and HEK293T (human embryonic kidney cells) were purchased from the American type culture collection (ATCC) and maintained in Dulbecco's modified Eagle's medium (DMEM) (Gibco) supplemented with 10% (v/v) heat-inactivated fetal bovine serum (FBS) (Gibco) and penicillin/streptomycin (100 U mL^−1 each). HiBiT-CCNK KI A549 cells, purchased from Promega, were maintained in F12 medium supplemented with 10% (v/v) heat-inactivated fetal bovine serum (FBS) (Gibco) and penicillin/streptomycin (100 U mL^−1 each). DDB1-knockdown MDA-MB-231 and DDB1-knockdown HEK293T cell lines were maintained in the same media formulation as their corresponding wild-type cell lines. All cell lines were cultured at 37 °C in an incubator with CO2 levels maintained at 5%.
(§2) Cell viability was measured by Cell Titer Glo assay kit (Promega, USA). EC50 was determined from the nonlinear regression and a four-parameter algorithm on the GraphPad Prism software.

Cdk12/CycK and DDB1ΔB = target: T1, Cdk12/CycK and DDB1ΔB (Homo sapiens, UniProt Q16531+Q9NYV4, DEL396-705); experiment: Thermal stability (nanoDSF) of mixture of DDB1ΔB and Cdk12/CycK; assay type: binding; conditions: Cdk12/CycK and DDB1ΔB 5 μM each, 3-fold molar excess of compound
T1 construct: the Cdk12 (714–1063)/CycK (1–267) complex and the DDB1ΔB protein; made in house; host or cells: Sf9 insect cells (MultiBacTurbo)
T1 sequence (Q9NYV4 714-1063, stated change not applied): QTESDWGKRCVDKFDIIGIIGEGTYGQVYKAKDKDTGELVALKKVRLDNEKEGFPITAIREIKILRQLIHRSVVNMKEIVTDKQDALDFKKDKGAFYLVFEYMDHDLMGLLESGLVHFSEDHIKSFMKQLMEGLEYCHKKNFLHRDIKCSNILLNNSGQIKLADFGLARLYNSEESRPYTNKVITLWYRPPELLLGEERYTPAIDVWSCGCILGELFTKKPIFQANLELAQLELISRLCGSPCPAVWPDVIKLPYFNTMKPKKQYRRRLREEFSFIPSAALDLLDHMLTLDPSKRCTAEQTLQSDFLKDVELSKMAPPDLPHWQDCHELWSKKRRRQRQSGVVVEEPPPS
T1 sequence (O75909 1-267 partner limits assumed): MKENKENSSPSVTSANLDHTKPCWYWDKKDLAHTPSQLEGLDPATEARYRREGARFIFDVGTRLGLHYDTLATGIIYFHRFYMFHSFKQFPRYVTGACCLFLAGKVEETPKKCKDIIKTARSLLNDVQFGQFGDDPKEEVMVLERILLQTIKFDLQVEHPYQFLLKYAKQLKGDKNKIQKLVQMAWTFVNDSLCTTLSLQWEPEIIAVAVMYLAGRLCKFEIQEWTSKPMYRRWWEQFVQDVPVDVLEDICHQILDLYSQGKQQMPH
T1 sequence (Q16531 with tags, fused parts or gaps DEL396-705): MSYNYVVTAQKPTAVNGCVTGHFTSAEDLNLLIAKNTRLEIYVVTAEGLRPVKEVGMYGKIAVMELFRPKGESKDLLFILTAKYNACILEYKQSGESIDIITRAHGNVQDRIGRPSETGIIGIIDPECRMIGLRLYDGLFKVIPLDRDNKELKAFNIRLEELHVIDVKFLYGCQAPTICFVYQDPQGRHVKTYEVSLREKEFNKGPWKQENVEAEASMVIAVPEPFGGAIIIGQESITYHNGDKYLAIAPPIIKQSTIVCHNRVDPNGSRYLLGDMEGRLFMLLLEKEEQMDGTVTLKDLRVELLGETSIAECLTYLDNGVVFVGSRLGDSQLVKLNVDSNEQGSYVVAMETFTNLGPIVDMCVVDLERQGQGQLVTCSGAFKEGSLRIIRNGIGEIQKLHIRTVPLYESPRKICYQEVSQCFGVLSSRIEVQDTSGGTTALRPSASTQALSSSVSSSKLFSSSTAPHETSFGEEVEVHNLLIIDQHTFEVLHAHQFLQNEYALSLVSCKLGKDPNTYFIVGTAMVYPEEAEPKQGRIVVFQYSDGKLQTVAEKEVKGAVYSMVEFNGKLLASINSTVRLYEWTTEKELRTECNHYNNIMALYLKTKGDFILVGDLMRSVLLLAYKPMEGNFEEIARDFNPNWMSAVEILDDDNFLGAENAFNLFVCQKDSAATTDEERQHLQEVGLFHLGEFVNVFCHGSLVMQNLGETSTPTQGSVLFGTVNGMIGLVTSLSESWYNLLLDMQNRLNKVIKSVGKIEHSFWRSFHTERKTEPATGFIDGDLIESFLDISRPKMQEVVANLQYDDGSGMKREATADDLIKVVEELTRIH
Text: Synthetic genes, codon optimized for expression in Sf9 insect cells, comprising the kinase domain of human Cdk12 (residues 714–1063, UniProt accession number Q9NYV4) and cyclin box domains of human cyclin K (residues 1–267, UniProt accession number O75909) were purchased from GeneArt. The coding sequence of Cdk12 was integrated into the pACEBac1 acceptor vector, while CycK was introduced into pIDK donor vector. Both target vectors underwent modification, wherein a GST-affinity tag followed by a tobacco etch virus (TEV) protease cleavage site was introduced upstream of the protein coding sequence. A pIDC donor vector was employed to insert full-length CDK-activating kinase CAK1 (UniProt accession number P43568) from S. cerevisiae devoid of any affinity tag. […]
The human wild-type BPB domain deletion version (ΔBPB: amino acids 396–705 deleted) of DNA damage-binding protein 1 (DDB1) (residues 1–1140 Δ396–705, UniProt accession number Q16531) was PCR-amplified from AddGene plasmid #124213 and inserted into a pACEBac1 vector, which had been modified with a N-terminal His6 affinity tag. […] After loading the supernatant, the column was washed with 10 column volumes (CV) lysis buffer to achieve baseline levels of absorbance at 280 nm wavelength, followed by 3 CV of wash buffer (50 mM Tris pH 8, 200 mM NaCl, 1 mM TCEP, 50 mM Imidazole) and another round of lysis buffer (5 CV). […]

MDA-MB-231 cells = experiment: CellTiter-Glo viability assay, WT MDA-MB-231; assay type: cell-based; conditions: Homo sapiens; WT MDA-MB-231, 72 hours, CellTiter-Glo; read-out: EC50 cell viability
Text: as §1, §2

HiBiT-tagged cyclin K = experiment: HiBiT cyclin K degradation assay (DC50, Dmax); assay type: cell-based; conditions: HiBiT-CCNK KI A549 cells, 2 hours
Protocol: Next, we utilized HiBiT technology (Promega) for quantitative analysis of cyclin K degrader activity. […] Importantly, knockout of CDK12 using CRISPR/Cas9 protected cyclin K from SR-4835-induced degradation (Fig. 1D). We verified the depletion of CDK12 in HEK-293T cells (Fig. S3, ESI ^†).
The HiBiT-CCNK KI A549 cells (Promega) were seeded in 384 well plate and treated with the test compounds for 2 hours in a dose dependent manner. Nano-Glo® HiBiT Lytic Detection System (Promega) composed of the Nano-Glo® HiBiT Lytic Substrate, Nano-Glo® HiBiT Lytic Buffer and LgBiT Protein was used as per the manufacturer's instructions. Briefly, a 2× Nano-Glo® HiBiT Lytic Detection Reagent mixture was prepared by adding 20 μL of Nano-Glo® HiBiT Lytic Substrate and 10 μL of LgBiT protein per every 1 mL of Nano-Glo® HiBiT Lytic Buffer. After incubating the cells with the 2× Nano-Glo® HiBiT Lytic Detection Reagent mixture, luminescence was measured. HiBiT tagged cyclin K present at any given concentration was measured by normalizing the luminescence signal at that concentration to the luminescence signal from the DMSO (control) cells. The concentration necessary to achieve a 50% reduction in cyclin K levels (DC50) and the maximum achievable reduction in cyclin K levels (Dmax) was computed from this assay.

ΔTm (Cdk12/CycK and DDB1ΔB) | EC50 (MDA-MB-231 cells) | DC50 (HiBiT-tagged cyclin K; read-out: DC50 (concentration for 50% reduction in cyclin K levels)) | SMILES | EC50 (HEK-293T cells) | reduction in cyclin K levels (HiBiT-tagged cyclin K; dose-response) | Dmax (maximum reduction in cyclin K levels) (HiBiT-tagged cyclin K; vs DMSO)
+2 °C | 0.072 µM |  | CN(C)C/C=C/C(=O)Nc1ccc(C(=O)N2CCC[C@@H](Nc3ncc(Cl)c(-c4c[nH]c5ccccc45)n3)C2)cc1 [THZ531, reference compound] | 0.128 µM | no reduction in cyclin K levels | 
+5.05 °C | 0.055 µM | ~0.09 µM | Cn1cc(-n2cnc3c(NCc4nc5cc(Cl)c(Cl)cc5[nH]4)nc(N4CCOCC4)nc32)cn1 [SR-4835] | 0.188 µM |  | > 95%
